Patent US20230085307A1, “PYRIDAZINONE COMPOUND AND HERBICIDE” (NISSAN CHEMICAL CORPORATION, priority 2019, published 2023)

How the values were obtained:
Italian ryegrass [1] = test: Test Example 5: herbicidal effect by foliage application, plastic box (Table 20, symbol K); format: in vivo, Italian ryegrass (Lolium multiflorum); settings: foliage application, AAH 320 g/ha, evaluated three weeks after application
In short: (§1)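 Plants were sown into sterilized diluvial soil under about 1.5 cm cover and kept in a greenhouse at 25° C. to 30° C. Fourteen days on, foliage received an even spray of the diluted emulsion. Herbicidal or crop effect was judged three weeks afterwards.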

persian speedwell [2] = test: Test Example 5: herbicidal effect by foliage application, plastic box (Table 20, symbol R); format: in vivo, Persian speedwell (Veronica persica); settings: foliage application, AAH 320 g/ha, evaluated three weeks after application
In short: as §1

blackgrass [3] = test: Test Example 4: herbicidal effect by soil treatment (Table 19, symbol J); format: in vivo, blackgrass (Alopecurus myosuroides); settings: amount of applied herbicide 320 g/ha
In short: (§2)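 In this soil treatment, the formulated compound reached the seeds only through the soil: seeds were buried about 1.5 cm deep in sterilized diluvial soil, then the diluted emulsion was sprayed over the surface. After three weeks at 25° C. to 30° C. in a greenhouse, effects were graded on criteria from an earlier test.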

blackgrass [4] = test: Test Example 5: herbicidal effect by foliage application, plastic box (Table 20, symbol J); format: in vivo, blackgrass (Alopecurus myosuroides); settings: foliage application, AAH 320 g/ha, evaluated three weeks after application
In short: as §1

green foxtail [5] = test: Test Example 5: herbicidal effect by foliage application, plastic box (Table 20, symbol G); format: in vivo, green foxtail (Setaria viridis); settings: foliage application, AAH 320 g/ha, evaluated three weeks after application
In short: as §1

southern crabgrass [6] = test: Test Example 4: herbicidal effect by soil treatment (Table 19, symbol F); format: in vivo, southern crabgrass (Digitaria ciliaris); settings: amount of applied herbicide 320 g/ha
In short: as §2

barnyard grass [7] = test: Test Example 5: herbicidal effect by foliage application, plastic box (Table 20, symbol H); format: in vivo, barnyard grass (Echinochloa crus-galli); settings: foliage application, AAH 320 g/ha, evaluated three weeks after application
In short: as §1

Italian ryegrass [8] = test: Test Example 4: herbicidal effect by soil treatment (Table 19, symbol K); format: in vivo, Italian ryegrass (Lolium multiflorum); settings: amount of applied herbicide 320 g/ha
In short: as §2

late watergrass = test: Test Example 1: herbicidal activity, application before weed generation under submerged conditions (Table 16, symbol A); format: in vivo, late watergrass (Echinochloa oryzicola); settings: amount of applied herbicide 320 g/ha
In short: (§3)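 Submerged Wagner pots (alluvial soil, 4 cm water) sown with weed seeds and planted with 2.5-leaf rice seedlings; emulsifiable concentrate diluted in water applied to water surface on sowing day. Held in greenhouse at 25-30 °C; injury scored 0-5 by herbicidal rate after three weeks.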

barnyard grass [9] = test: Test Example 4: herbicidal effect by soil treatment (Table 19, symbol H); format: in vivo, barnyard grass (Echinochloa crus-galli); settings: amount of applied herbicide 320 g/ha
In short: as §2

chickweed [10] = test: Test Example 5: herbicidal effect by foliage application, plastic box (Table 20, symbol P); format: in vivo, common chickweed (Stellaria media); settings: foliage application, AAH 320 g/ha, evaluated three weeks after application
In short: as §1

Japanese bulrush = test: Test Example 1: herbicidal activity, application before weed generation under submerged conditions (Table 16, symbol B); format: in vivo, Japanese bulrush (Schoenoplectus juncoides); settings: amount of applied herbicide 320 g/ha
In short: as §3

lambsquarters [11] = test: Test Example 4: herbicidal effect by soil treatment (Table 19, symbol O); format: in vivo, lambsquarters (Chenopodium album); settings: amount of applied herbicide 320 g/ha
In short: as §2

persian speedwell [12] = test: Test Example 4: herbicidal effect by soil treatment (Table 19, symbol R); format: in vivo, Persian speedwell (Veronica persica); settings: amount of applied herbicide 320 g/ha
In short: as §2

velvetleaf [13] = test: Test Example 4: herbicidal effect by soil treatment (Table 19, symbol M); format: in vivo, velvetleaf (Abutilon theophrasti); settings: amount of applied herbicide 320 g/ha
In short: as §2

Chinese sprangletop = test: Test Example 3: herbicidal effect by foliage application, Wagner pot (Table 18, symbol D); format: in vivo, chinese sprangletop (Leptochloa chinensis); settings: amount of applied herbicide 320 g/ha
In short: (§4)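 Plants were sown in alluvial soil held under 0.1–0.5 cm standing water and grown 14 days in a greenhouse at 25–30 °C. An emulsifiable formulation, water-diluted to the set dose, was then sprayed onto the foliage, and effects were scored three weeks later using previously defined criteria.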

barnyard grass [14] = test: Test Example 3: herbicidal effect by foliage application, Wagner pot (Table 18, symbol H); format: in vivo, barnyard grass (Echinochloa crus-galli); settings: amount of applied herbicide 320 g/ha
In short: as §4

southern crabgrass [15] = test: Test Example 5: herbicidal effect by foliage application, plastic box (Table 20, symbol F); format: in vivo, southern crabgrass (Digitaria ciliaris); settings: foliage application, AAH 320 g/ha, evaluated three weeks after application
In short: as §1

wild oat [16] = test: Test Example 4: herbicidal effect by soil treatment (Table 19, symbol I); format: in vivo, wild oat (Avena fatua); settings: amount of applied herbicide 320 g/ha
In short: as §2

rice flat sedge = test: Test Example 3: herbicidal effect by foliage application, Wagner pot (Table 18, symbol E); format: in vivo, rice flat sedge (Cyperus iria); settings: amount of applied herbicide 320 g/ha
In short: as §4

redroot pigweed [17] = test: Test Example 4: herbicidal effect by soil treatment (Table 19, symbol N); format: in vivo, redroot pigweed (Amaranthus retroflexus); settings: amount of applied herbicide 320 g/ha
In short: as §2

wild oat [18] = test: Test Example 5: herbicidal effect by foliage application, plastic box (Table 20, symbol I); format: in vivo, wild oat (Avena fatua); settings: foliage application, AAH 320 g/ha, evaluated three weeks after application
In short: as §1

redroot pigweed [19] = test: Test Example 5: herbicidal effect by foliage application, plastic box (Table 20, symbol N); format: in vivo, redroot pigweed (Amaranthus retroflexus); settings: foliage application, AAH 320 g/ha, evaluated three weeks after application
In short: as §1

chickweed [20] = test: Test Example 4: herbicidal effect by soil treatment (Table 19, symbol P); format: in vivo, common chickweed (Stellaria media); settings: amount of applied herbicide 320 g/ha
In short: as §2

oval-leafed pondweed = test: Test Example 1: herbicidal activity, application before weed generation under submerged conditions (Table 16, symbol C); format: in vivo, oval-leafed pondweed (Monochoria vaginalis); settings: amount of applied herbicide 320 g/ha
In short: as §3

windgrass [21] = test: Test Example 5: herbicidal effect by foliage application, plastic box (Table 20, symbol L); format: in vivo, windgrass (Apera spica-venti); settings: foliage application, AAH 320 g/ha, evaluated three weeks after application
In short: as §1

velvetleaf [22] = test: Test Example 5: herbicidal effect by foliage application, plastic box (Table 20, symbol M); format: in vivo, velvetleaf (Abutilon theophrasti); settings: foliage application, AAH 320 g/ha, evaluated three weeks after application
In short: as §1

green foxtail [23] = test: Test Example 4: herbicidal effect by soil treatment (Table 19, symbol G); format: in vivo, green foxtail (Setaria viridis); settings: amount of applied herbicide 320 g/ha
In short: as §2

windgrass [24] = test: Test Example 4: herbicidal effect by soil treatment (Table 19, symbol L); format: in vivo, windgrass (Apera spica-venti); settings: amount of applied herbicide 320 g/ha
In short: as §2

lambsquarters [25] = test: Test Example 5: herbicidal effect by foliage application, plastic box (Table 20, symbol O); format: in vivo, lambsquarters (Chenopodium album); settings: foliage application, AAH 320 g/ha, evaluated three weeks after application
In short: as §1

Cc1nn(C)c(=O)c(-c2c(-c3ccc(Cl)s3)sc3ccc(F)cc23)c1O [2-390]
K: Italian ryegrass, herbicidal effect (criteria 0-5) (Italian ryegrass [1]): 5 (Herbicidal rate of 90% or more (almost completely withered)) | R: persian speedwell, herbicidal effect (criteria 0-5) (persian speedwell [2]): 5 (Herbicidal rate of 90% or more (almost completely withered)) | herbicidal effect, J: blackgrass (blackgrass [3]): 5 (Herbicidal rate of 90% or more (almost completely withered)) | J: blackgrass, herbicidal effect (criteria 0-5) (blackgrass [4]): 4 (Herbicidal rate of 70% or more and less than 90%) | G: green foxtail, herbicidal effect (criteria 0-5) (green foxtail [5]): 5 (Herbicidal rate of 90% or more (almost completely withered)) | herbicidal effect, F: southern crabgrass (southern crabgrass [6]): 4 (Herbicidal rate of 70% or more and less than 90%) | H: barnyard grass, herbicidal effect (criteria 0-5) (barnyard grass [7]): 4 (Herbicidal rate of 70% or more and less than 90%) | herbicidal effect, K: Italian ryegrass (Italian ryegrass [8]): 5 (Herbicidal rate of 90% or more (almost completely withered)) | Herbicidal effect, A: late watergrass (late watergrass): 2 (Herbicidal rate of 20% or more and less than 40%) | herbicidal effect, H: barnyard grass (barnyard grass [9]): 5 (Herbicidal rate of 90% or more (almost completely withered)) | P: chickweed, herbicidal effect (criteria 0-5) (chickweed [10]): 5 (Herbicidal rate of 90% or more (almost completely withered)) | Herbicidal effect, B: Japanese bulrush (Japanese bulrush): 0 (Herbicidal rate of 5% or less (almost no effect)) | herbicidal effect, O: lambsquarters (lambsquarters [11]): 4 (Herbicidal rate of 70% or more and less than 90%) | herbicidal effect, R: persian speedwell (persian speedwell [12]): 5 (Herbicidal rate of 90% or more (almost completely withered)) | herbicidal effect, M: velvetleaf (velvetleaf [13]): 3 (Herbicidal rate of 40% or more and less than 70%) | herbicidal effect on D: Chinese sprangletop (Chinese sprangletop): 3 (Herbicidal rate of 40% or more and less than 70%) | herbicidal effect on H: barnyard grass (barnyard grass [14]): 5 (Herbicidal rate of 90% or more (almost completely withered)) | F: southern crabgrass, herbicidal effect (criteria 0-5) (southern crabgrass [15]): 5 (Herbicidal rate of 90% or more (almost completely withered)) | herbicidal effect, I: wild oat (wild oat [16]): 1 (Herbicidal rate of 5% or more and less than 20%) | herbicidal effect on E: rice flat sedge (rice flat sedge): 5 (Herbicidal rate of 90% or more (almost completely withered)) | herbicidal effect, N: redroot pigweed (redroot pigweed [17]): 5 (Herbicidal rate of 90% or more (almost completely withered)) | I: wild oat, herbicidal effect (criteria 0-5) (wild oat [18]): 4 (Herbicidal rate of 70% or more and less than 90%) | N: redroot pigweed, herbicidal effect (criteria 0-5) (redroot pigweed [19]): 5 (Herbicidal rate of 90% or more (almost completely withered)) | herbicidal effect, P: chickweed (chickweed [20]): 4 (Herbicidal rate of 70% or more and less than 90%) | Herbicidal effect, C: oval-leafed pondweed (oval-leafed pondweed): 0 (Herbicidal rate of 5% or less (almost no effect)) | L: windgrass, herbicidal effect (criteria 0-5) (windgrass [21]): 5 (Herbicidal rate of 90% or more (almost completely withered)) | M: velvetleaf, herbicidal effect (criteria 0-5) (velvetleaf [22]): 5 (Herbicidal rate of 90% or more (almost completely withered)) | herbicidal effect, G: green foxtail (green foxtail [23]): 5 (Herbicidal rate of 90% or more (almost completely withered)) | herbicidal effect, L: windgrass (windgrass [24]): 4 (Herbicidal rate of 70% or more and less than 90%) | O: lambsquarters, herbicidal effect (criteria 0-5) (lambsquarters [25]): 5 (Herbicidal rate of 90% or more (almost completely withered))
